ChEMBL document CHEMBL5500396, “Discovery, Multiparametric Optimization, and Solid-State Driven Identification of CHF-6550, a Novel Soft Dual Pharmacology Muscarinic Antagonist and β2 Agonist (MABA) for the Inhaled Treatment of Respiratory Diseases” (J Med Chem, 2024)
pIC50, pKi: −log10 of the molar value.

Columns and labels:
[1] = biological target: Muscarinic acetylcholine receptor M3 (Cavia porcellus, UniProt Q8VH26); experiment: Antagonist activity at M3 receptor in male albino Dunkin-Hartley guinea pig trachea assessed as inhibition of carbachol-induced smooth muscle contraction in presence of propranolol
[2] = biological target: Beta-2 adrenergic receptor (Cavia porcellus, UniProt Q8K4Z4); experiment: Agonist activity at beta2 adrenoceptor in male albino Dunkin-Hartley guinea pig trachea assessed as inhibition of histamine induced smooth muscle contraction
[3] = biological target: Muscarinic acetylcholine receptor M3 (Homo sapiens, UniProt P20309)
Description: Displacement of Scopolamine methyl chloride,[N-methyl-3H] from human muscarinic M3 receptor assessed as inhibition constant incubated for 2 hrs by Microbeta scintillation counter

[4] = biological target: Beta-2 adrenergic receptor (Homo sapiens, UniProt P07550)
Description: Displacement of [125I]-Cyanopindolol from human beta2 adrenoceptor assessed as inhibition constant incubated for 1 hrs by Microbeta scintillation counter

in vitro [5] = conditions: guinea pig, lung S9 fraction
Description: Stability in guinea pig lung S9 fraction assessed as half-life at 1 uM incubated for 60 mins by LC-MS/MS analysis

in vitro [6] = conditions: human, hepatocytes
Description: Metabolic stability in human hepatocytes assessed as clearance measured per 10^6 cells at 1 uM incubated for 90 mins by LC-MS/MS analysis

in vitro [7] = conditions: rat, hepatocytes
Description: Metabolic stability in rat hepatocytes assessed as clearance measured per 10^6 cells at 1 uM incubated for 90 mins by LC-MS/MS analysis

in vitro [8] = conditions: human, lung S9 fraction
Description: Stability in human lung S9 fraction assessed as half-life at 1 uM incubated for 60 mins by LC-MS/MS analysis

in vitro [9] = conditions: rat, lung S9 fraction
Description: Stability in rat lung S9 fraction assessed as half-life at 1 uM incubated for 60 mins by LC-MS/MS analysis

in vitro [10] = conditions: human, plasma
Description: Stability in human plasma assessed as half-life at 5 uM incubated for 120 mins by LC-MS/MS analysis

in vitro [11] = conditions: rat, plasma
Description: Stability in rat plasma assessed as half-life at 5 uM incubated for 120 mins by LC-MS/MS analysis

in vitro [12] = conditions: guinea pig, plasma
Description: Stability in guinea pig plasma assessed as half-life at 5 uM incubated for 120 mins by LC-MS/MS analysis

in vitro [13] = conditions: guinea pig, hepatocytes
Description: Metabolic stability in guinea pig hepatocytes assessed as clearance measured per 10^6 cells at 1 uM incubated for 90 mins by LC-MS/MS analysis

Trachea = experiment: Inhibition of carbachol-induced smooth muscle contraction in male albino Dunkin-Hartley guinea pig trachea; conditions: Cavia porcellus, read-out: pIC50 (converted)
Cavia porcellus [14] = experiment: Inhibition of histamine induced bronchoconstriction in male albino Dunkin-Hartley guinea pig model at 3 nmol/kg, IT(Intratracheal) preadministered with compound followed by histamine addition at 5 to 30 mins and measured 1 hrs post compound treatment relative to control; conditions: read-out: INH
Cavia porcellus [15] = experiment: Inhibition of acetylcholine induced bronchoconstriction in male albino Dunkin-Hartley guinea pig model at 3 nmol/kg, IT(Intratracheal) preadministered with compound followed by acetylcholine addition at 5 to 30 mins and measured 1 hrs post compound treatment relative to control; conditions: read-out: INH
[16] = Protein binding in human plasma at 5 uM incubated for 4 hrs by LC-MS/MS analysis
Cavia porcellus [17] = species on record: Cavia porcellus; experiment: animal or person; conditions: albino Dunkin-Hartley, 1 h, read-out: INH
Description: Inhibition of acetylcholine induced bronchoconstriction in male albino Dunkin-Hartley guinea pig model at 3 nmol/kg, IT(Intratracheal) preadministered with compound followed by acetylcholine addition at 5 to 30 mins in presence of ICI-118551 and measured 1 hrs post compound treatment relative to control

Muscarinic acetylcholine receptor M3 (Homo sapiens, UniProt P20309), sequence (P20309 whole entry): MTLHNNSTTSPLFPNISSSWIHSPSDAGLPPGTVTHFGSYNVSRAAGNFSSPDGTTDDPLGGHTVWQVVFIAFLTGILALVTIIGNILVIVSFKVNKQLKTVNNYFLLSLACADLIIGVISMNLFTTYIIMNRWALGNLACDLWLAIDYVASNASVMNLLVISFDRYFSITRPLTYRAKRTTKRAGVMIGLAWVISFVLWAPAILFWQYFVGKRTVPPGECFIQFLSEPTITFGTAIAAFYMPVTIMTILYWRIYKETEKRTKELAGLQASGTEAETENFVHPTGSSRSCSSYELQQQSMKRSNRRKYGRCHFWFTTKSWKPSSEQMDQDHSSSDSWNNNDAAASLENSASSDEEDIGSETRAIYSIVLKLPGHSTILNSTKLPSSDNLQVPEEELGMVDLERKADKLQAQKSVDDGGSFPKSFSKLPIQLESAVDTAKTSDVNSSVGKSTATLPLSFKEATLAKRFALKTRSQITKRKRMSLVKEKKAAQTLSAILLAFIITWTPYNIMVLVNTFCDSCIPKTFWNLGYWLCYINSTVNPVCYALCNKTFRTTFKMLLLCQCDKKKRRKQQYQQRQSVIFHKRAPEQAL
Beta-2 adrenergic receptor (Cavia porcellus, UniProt Q8K4Z4), sequence (Q8K4Z4 whole entry): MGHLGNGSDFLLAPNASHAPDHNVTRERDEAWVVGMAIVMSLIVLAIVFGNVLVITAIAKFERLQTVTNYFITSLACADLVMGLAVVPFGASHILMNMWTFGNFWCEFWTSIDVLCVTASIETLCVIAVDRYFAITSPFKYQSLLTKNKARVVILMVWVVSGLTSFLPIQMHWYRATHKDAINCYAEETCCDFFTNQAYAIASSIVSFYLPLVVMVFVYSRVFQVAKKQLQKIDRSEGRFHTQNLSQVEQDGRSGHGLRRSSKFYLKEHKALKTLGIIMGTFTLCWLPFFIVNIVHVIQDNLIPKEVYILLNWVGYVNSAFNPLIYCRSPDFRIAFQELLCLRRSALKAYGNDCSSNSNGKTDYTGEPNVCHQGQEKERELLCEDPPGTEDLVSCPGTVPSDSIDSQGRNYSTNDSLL
Muscarinic acetylcholine receptor M3 (Cavia porcellus, UniProt Q8VH26), sequence (Q8VH26 whole entry): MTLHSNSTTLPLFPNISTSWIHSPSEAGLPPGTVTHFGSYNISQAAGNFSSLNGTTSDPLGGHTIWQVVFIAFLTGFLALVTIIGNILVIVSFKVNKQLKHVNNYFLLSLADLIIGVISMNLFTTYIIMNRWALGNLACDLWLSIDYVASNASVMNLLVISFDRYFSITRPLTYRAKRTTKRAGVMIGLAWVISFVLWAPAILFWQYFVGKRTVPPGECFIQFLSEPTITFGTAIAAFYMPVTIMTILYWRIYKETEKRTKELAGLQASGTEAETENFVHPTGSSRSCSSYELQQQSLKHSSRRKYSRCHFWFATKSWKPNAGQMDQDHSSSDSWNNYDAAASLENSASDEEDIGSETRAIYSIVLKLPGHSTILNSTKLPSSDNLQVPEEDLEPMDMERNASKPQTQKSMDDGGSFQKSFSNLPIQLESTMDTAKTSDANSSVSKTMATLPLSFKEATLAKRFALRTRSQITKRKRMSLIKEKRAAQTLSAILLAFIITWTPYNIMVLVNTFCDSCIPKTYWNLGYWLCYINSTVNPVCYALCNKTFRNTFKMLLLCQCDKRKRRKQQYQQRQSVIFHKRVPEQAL
Beta-2 adrenergic receptor (Homo sapiens, UniProt P07550), sequence (P07550 whole entry): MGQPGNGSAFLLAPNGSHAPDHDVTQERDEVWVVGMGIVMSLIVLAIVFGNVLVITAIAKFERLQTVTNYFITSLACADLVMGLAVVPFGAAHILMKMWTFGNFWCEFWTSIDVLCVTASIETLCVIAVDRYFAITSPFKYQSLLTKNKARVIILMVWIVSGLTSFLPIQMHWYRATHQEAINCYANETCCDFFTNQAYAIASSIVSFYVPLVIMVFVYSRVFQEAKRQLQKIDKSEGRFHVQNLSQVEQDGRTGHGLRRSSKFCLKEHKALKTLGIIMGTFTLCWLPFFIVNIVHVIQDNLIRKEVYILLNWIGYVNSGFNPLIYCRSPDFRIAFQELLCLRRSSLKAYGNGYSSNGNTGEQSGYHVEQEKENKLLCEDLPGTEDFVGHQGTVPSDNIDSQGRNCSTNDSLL

Row | SMILES | pIC50 [1] | pIC50 [2] | pKi [3] | pKi [4] | half-life at 1 h, 1 µM (in vitro [5]) | hepatocyte CLint at 1.5 h, 1 µM (in vitro [6]) | hepatocyte CLint at 1.5 h, 1 µM (in vitro [7]) | half-life at 1 h, 1 µM (in vitro [8]) | half-life at 1 h, 1 µM (in vitro [9]) | half-life at 2 h, 5 µM (in vitro [10]) | half-life at 2 h, 5 µM (in vitro [11]) | half-life at 2 h, 5 µM (in vitro [12]) | IC50 (Trachea) | other results
1 | COc1cc(C(=O)NCCCOc2cccc([C@](O)(C(=O)OCC3CCN(Cc4ccccc4)CC3)c3ccccc3)c2)ccc1CNC[C@H](O)c1ccc(O)c2[nH]c(=O)ccc12 | 9.90 | 10.90 | 10.70 | 9.40 | 0.483 h | 20 µL/min/1e6 cells | 60 µL/min/1e6 cells | 4 h | 3.95 h | > 2.5 h | 0.6 h | 0.1 h | – | –
2 | O=C(NCc1ccc(-c2cccc([C@](O)(C(=O)OCC3CCN(Cc4ccccc4)CC3)c3ccccc3)c2)s1)c1ccc(CNC[C@H](O)c2ccc(O)c3[nH]c(=O)ccc23)cc1 | – | – | 9.60 | 8.60 | 2.1 h | 12 µL/min/1e6 cells | 50 µL/min/1e6 cells | 1.47 h | 2.1 h | > 2.5 h | > 2.5 h | 0.217 h | – | hepatocyte CLint at 1.5 h, 1 µM (in vitro [13]): 295 µL/min/1e6 cells
3 | O=C(NCCCNC[C@H](O)c1ccc(O)c2[nH]c(=O)ccc12)c1ccc(COc2cccc([C@](O)(C(=O)OCC3CCN(Cc4ccccc4)CC3)c3ccccc3)c2)cc1 | 9.70 | 9.70 | 9.60 | 10.70 | – | – | – | – | – | – | – | – | 0.126 nM | –
4 | O=C(c1ccc(CCNC[C@H](O)c2ccc(O)c3[nH]c(=O)ccc23)cc1)N1CCC(c2cccc([C@](O)(C(=O)OCC3CCN(Cc4ccccc4)CC3)c3ccccc3)c2)CC1 | 8.70 | 9.20 | 10.20 | 9.40 | 1.9 h | 13 µL/min/1e6 cells | 36 µL/min/1e6 cells | 3 h | 2.47 h | > 2.5 h | 0.533 h | 0.267 h | – | –
5 | O=C(NCCCCNC[C@H](O)c1ccc(O)c2[nH]c(=O)ccc12)c1ccc(CNC2(C(=O)O[C@H]3CN4CCC3CC4)CCc3ccccc32)cc1 (mixture of isomers) | 8.50 | 8.60 | 9.90 | 9.30 | – | – | – | – | – | – | – | – | 1.58 nM | –
6 | O=C(NCCCCNC[C@H](O)c1ccc(O)c2[nH]c(=O)ccc12)c1ccc(CNC2(C(=O)OCC3CCN(Cc4ccccc4)CC3)CCc3ccccc32)s1 (mixture of isomers; 32) | 9.00 | 10.60 | 8.40 | 10.20 | – | – | – | – | – | > 2.5 h | – | – | 0.0501 nM | hepatocyte CLint at 1.5 h, 1 µM (in vitro [6]; CLH): 13 µL/min/1e6 cells; hepatocyte CLint at 1.5 h, 1 µM (in vitro [7]; CLH): 44 µL/min/1e6 cells; half-life at 1 h, 1 µM (in vitro [8]; t1/2): 1.62 h; half-life at 1 h, 1 µM (in vitro [9]; t1/2): 2.35 h; half-life at 2 h, 5 µM (in vitro [11]; t1/2): 0.5 h
7 | O=C(NCCCCNC[C@H](O)c1ccc(O)c2[nH]c(=O)ccc12)c1ccc(CNC2(C(=O)OCC3CCN(Cc4ccccc4)CC3)CCc3ccccc32)s1 (mixture of isomers; 33) | 9.10 | 10.20 | 8.70 | 10.50 | – | – | – | – | – | – | – | – | – | inhibition in vivo at 0.003 µmol/kg (Cavia porcellus [14]): 83%; inhibition in vivo at 0.003 µmol/kg (Cavia porcellus [15]): 96%; fraction unbound at 4 h, 5 µM [16]: 0.06; inhibition in vivo at 0.003 µmol/kg (Cavia porcellus [17]): 60%
8 | O=C(c1ccc(OCc2ccc(CNC[C@H](O)c3ccc(O)c4[nH]c(=O)ccc34)cc2)cc1)N1CC(C(=O)OC2CN3CCC2CC3)(c2ccccc2)C1 (single isomer, unassigned) | 9.00 | 9.00 | 9.50 | 9.20 | – | – | – | – | – | – | – | – | 1 nM | –
